The record followed here is article PMC4908596, “Fusing simulation and experiment: The effect of mutations on the structure and activity of the influenza fusion peptide” (Scientific Reports, 2016).

Ends that are not written are not given here.

For the series the following is noted: pH 5.
On to “GLFAAIAAFIEGGWTAMIDAWYGS [G4AG8AG16AG20A]”, for which the “Kp (lipid/water partition coefficient)” value amounted to 333.
The figure for GLFGAIAGFIEAAWTGMIDGWYGS [G12AG13A] is 442; for GLFGAIAGFIEGGATGMIDGWYGS [W14A] it is 6265.
With “GLFGAIAGFIEGGWTGMIDGWYGS [WT, reference compound]”, the “Kp (lipid/water partition coefficient)” value was 10455.
